Laboratory results as given in paper PMC12446476 (Nature Communications, 2025).
Converted amounts (≈) assume the structure as drawn. Like-named read-outs stand apart in the source and are kept apart here.

Test system: N. gonorrhoeae
Test: MIC determination, Etest
Assay type: cell-based, Neisseria gonorrhoeae
Settings: for MIC: Neisseria gonorrhoeae
Text: The 2024 WHO N. gonorrhoeae reference strains were used for quality control. Only whole MIC doubling dilutions are reported. Clinical breakpoints or the epidemiological cutoff (ECOFF, to indicate azithromycin resistance) from EUCAST (v14.0, https://www.eucast.org/clinical_breakpoints) were used to classify isolates as antimicrobial susceptible or resistant. […] Two times the standard inoculum defined by CLSI was used to establish consistent growth in untreated control samples for some strains. In vitro time-kill assays were performed according to CLSI guidelines[65] using Columbia Broth (BD Difco) supplemented with 1% IsoVitaleX Enrichment (BD). Viable bacterial counts were generated by plating 10-fold serially diluted samples on GC agar plates containing 1% IsoVitaleX Enrichment (BD).

CN[C@@H]1[C@H](O)[C@H](NC)[C@H]2O[C@@]3(O)C(=O)C[C@@H](C)O[C@H]3O[C@@H]2[C@H]1O [Spectinomycin]
susceptibility of all isolates (100 contemporary clinical N. gonorrhoeae isolates, EUCAST): susceptible | MIC (WHO F, Etest, read-out: MIC): 16 µg/mL (≈ 48.1 µM) | MIC (WHO H, Etest, read-out: MIC): 8 µg/mL (≈ 24.1 µM) | MIC (WHO K, Etest, read-out: MIC): 16 µg/mL (≈ 48.1 µM) | MIC (WHO L, Etest, read-out: MIC): 16 µg/mL (≈ 48.1 µM) | MIC (WHO M, Etest, read-out: MIC): 16 µg/mL (≈ 48.1 µM) | MIC (WHO O, Etest, read-out: MIC): > 1020 µg/mL | MIC (WHO P, Etest, read-out: MIC): 8 µg/mL (≈ 24.1 µM) | MIC (WHO Q, Etest, read-out: MIC): 8 µg/mL (≈ 24.1 µM) | MIC (WHO R, Etest, read-out: MIC): 8 µg/mL (≈ 24.1 µM) | MIC (WHO S2, Etest, read-out: MIC): 16 µg/mL (≈ 48.1 µM) | MIC (WHO U, Etest, read-out: MIC): 8 µg/mL (≈ 24.1 µM) | MIC (WHO V, Etest, read-out: MIC): 16 µg/mL (≈ 48.1 µM) | MIC (WHO X, Etest, read-out: MIC): 16 µg/mL (≈ 48.1 µM) | MIC (WHO Y, Etest, read-out: MIC): 16 µg/mL (≈ 48.1 µM) | MIC (WHO Z, Etest, read-out: MIC): 16 µg/mL (≈ 48.1 µM) | MIC (comparator antibiotics, clinical N. gonorrhoeae isolate 1, Sweden 2023, read-out: Minimum inhibitory concentration): 16 µg/mL (≈ 48.1 µM) | MIC (comparator antibiotics, clinical N. gonorrhoeae isolate 2, Sweden 2023, read-out: Minimum inhibitory concentration): 8 µg/mL (≈ 24.1 µM) | MIC (comparator antibiotics, clinical N. gonorrhoeae isolate 3, Sweden 2023, read-out: Minimum inhibitory concentration): 16 µg/mL (≈ 48.1 µM) | MIC (comparator antibiotics, clinical N. gonorrhoeae isolate 4, Sweden 2023, read-out: Minimum inhibitory concentration): 16 µg/mL (≈ 48.1 µM) | MIC (comparator antibiotics, clinical N. gonorrhoeae isolate 5, Sweden 2023, read-out: Minimum inhibitory concentration): 8 µg/mL (≈ 24.1 µM) | MIC (comparator antibiotics, clinical N. gonorrhoeae isolate 6, Sweden 2023, read-out: Minimum inhibitory concentration): 8 µg/mL (≈ 24.1 µM) | MIC (comparator antibiotics, clinical N. gonorrhoeae isolate 7, Sweden 2023, read-out: Minimum inhibitory concentration): 16 µg/mL (≈ 48.1 µM) | MIC (comparator antibiotics, clinical N. gonorrhoeae isolate 8, Sweden 2023, read-out: Minimum inhibitory concentration): 16 µg/mL (≈ 48.1 µM) | MIC (comparator antibiotics, clinical N. gonorrhoeae isolate 9, Sweden 2023, read-out: Minimum inhibitory concentration): 8 µg/mL (≈ 24.1 µM) | MIC (comparator antibiotics, clinical N. gonorrhoeae isolate 10, Sweden 2023, read-out: Minimum inhibitory concentration): 16 µg/mL (≈ 48.1 µM) | MIC (comparator antibiotics, clinical N. gonorrhoeae isolate 11, Sweden 2023, read-out: Minimum inhibitory concentration): 16 µg/mL (≈ 48.1 µM) | MIC (comparator antibiotics, clinical N. gonorrhoeae isolate 12, Sweden 2023, read-out: Minimum inhibitory concentration): 16 µg/mL (≈ 48.1 µM) | MIC (comparator antibiotics, clinical N. gonorrhoeae isolate 13, Sweden 2023, read-out: Minimum inhibitory concentration): 16 µg/mL (≈ 48.1 µM) | MIC (comparator antibiotics, clinical N. gonorrhoeae isolate 14, Sweden 2023, read-out: Minimum inhibitory concentration): 16 µg/mL (≈ 48.1 µM) | MIC (comparator antibiotics, clinical N. gonorrhoeae isolate 15, Sweden 2023, read-out: Minimum inhibitory concentration): 16 µg/mL (≈ 48.1 µM) | MIC (comparator antibiotics, clinical N. gonorrhoeae isolate 16, Sweden 2023, read-out: Minimum inhibitory concentration): 8 µg/mL (≈ 24.1 µM) | MIC (comparator antibiotics, clinical N. gonorrhoeae isolate 17, Sweden 2023, read-out: Minimum inhibitory concentration): 8 µg/mL (≈ 24.1 µM) | MIC (comparator antibiotics, clinical N. gonorrhoeae isolate 18, Sweden 2023, read-out: Minimum inhibitory concentration): 16 µg/mL (≈ 48.1 µM) | MIC (comparator antibiotics, clinical N. gonorrhoeae isolate 19, Sweden 2023, read-out: Minimum inhibitory concentration): 16 µg/mL (≈ 48.1 µM) | MIC (comparator antibiotics, clinical N. gonorrhoeae isolate 20, Sweden 2023, read-out: Minimum inhibitory concentration): 16 µg/mL (≈ 48.1 µM) | MIC (comparator antibiotics, clinical N. gonorrhoeae isolate 21, Sweden 2023, read-out: Minimum inhibitory concentration): 16 µg/mL (≈ 48.1 µM) | MIC (comparator antibiotics, clinical N. gonorrhoeae isolate 22, Sweden 2023, read-out: Minimum inhibitory concentration): 8 µg/mL (≈ 24.1 µM) | MIC (comparator antibiotics, clinical N. gonorrhoeae isolate 23, Sweden 2023, read-out: Minimum inhibitory concentration): 8 µg/mL (≈ 24.1 µM) | MIC (comparator antibiotics, clinical N. gonorrhoeae isolate 24, Sweden 2023, read-out: Minimum inhibitory concentration): 16 µg/mL (≈ 48.1 µM) | MIC (comparator antibiotics, clinical N. gonorrhoeae isolate 25, Sweden 2023, read-out: Minimum inhibitory concentration): 8 µg/mL (≈ 24.1 µM) | MIC (comparator antibiotics, clinical N. gonorrhoeae isolate 26, Sweden 2023, read-out: Minimum inhibitory concentration): 16 µg/mL (≈ 48.1 µM) | MIC (comparator antibiotics, clinical N. gonorrhoeae isolate 27, Sweden 2023, read-out: Minimum inhibitory concentration): 8 µg/mL (≈ 24.1 µM) | MIC (comparator antibiotics, clinical N. gonorrhoeae isolate 28, Sweden 2023, read-out: Minimum inhibitory concentration): 8 µg/mL (≈ 24.1 µM) | MIC (comparator antibiotics, clinical N. gonorrhoeae isolate 29, Sweden 2023, read-out: Minimum inhibitory concentration): 16 µg/mL (≈ 48.1 µM) | MIC (comparator antibiotics, clinical N. gonorrhoeae isolate 30, Sweden 2023, read-out: Minimum inhibitory concentration): 8 µg/mL (≈ 24.1 µM) | MIC (comparator antibiotics, clinical N. gonorrhoeae isolate 31, Sweden 2023, read-out: Minimum inhibitory concentration): 8 µg/mL (≈ 24.1 µM) | MIC (comparator antibiotics, clinical N. gonorrhoeae isolate 32, Sweden 2023, read-out: Minimum inhibitory concentration): 8 µg/mL (≈ 24.1 µM) | MIC (comparator antibiotics, clinical N. gonorrhoeae isolate 33, Sweden 2023, read-out: Minimum inhibitory concentration): 8 µg/mL (≈ 24.1 µM) | MIC (comparator antibiotics, clinical N. gonorrhoeae isolate 34, Sweden 2023, read-out: Minimum inhibitory concentration): 8 µg/mL (≈ 24.1 µM) | MIC (comparator antibiotics, clinical N. gonorrhoeae isolate 35, Sweden 2023, read-out: Minimum inhibitory concentration): 16 µg/mL (≈ 48.1 µM) | MIC (comparator antibiotics, clinical N. gonorrhoeae isolate 36, Sweden 2023, read-out: Minimum inhibitory concentration): 8 µg/mL (≈ 24.1 µM) | MIC (comparator antibiotics, clinical N. gonorrhoeae isolate 37, Sweden 2023, read-out: Minimum inhibitory concentration): 8 µg/mL (≈ 24.1 µM) | MIC (comparator antibiotics, clinical N. gonorrhoeae isolate 38, Sweden 2023, read-out: Minimum inhibitory concentration): 8 µg/mL (≈ 24.1 µM) | MIC (comparator antibiotics, clinical N. gonorrhoeae isolate 39, Sweden 2023, read-out: Minimum inhibitory concentration): 16 µg/mL (≈ 48.1 µM) | MIC (comparator antibiotics, clinical N. gonorrhoeae isolate 40, Sweden 2023, read-out: Minimum inhibitory concentration): 8 µg/mL (≈ 24.1 µM) | MIC (comparator antibiotics, clinical N. gonorrhoeae isolate 41, Sweden 2023, read-out: Minimum inhibitory concentration): 16 µg/mL (≈ 48.1 µM) | MIC (comparator antibiotics, clinical N. gonorrhoeae isolate 42, Sweden 2023, read-out: Minimum inhibitory concentration): 8 µg/mL (≈ 24.1 µM) | MIC (comparator antibiotics, clinical N. gonorrhoeae isolate 43, Sweden 2023, read-out: Minimum inhibitory concentration): 16 µg/mL (≈ 48.1 µM) | MIC (comparator antibiotics, clinical N. gonorrhoeae isolate 44, Sweden 2023, read-out: Minimum inhibitory concentration): 16 µg/mL (≈ 48.1 µM) | MIC (comparator antibiotics, clinical N. gonorrhoeae isolate 45, Sweden 2023, read-out: Minimum inhibitory concentration): 16 µg/mL (≈ 48.1 µM) | MIC (comparator antibiotics, clinical N. gonorrhoeae isolate 46, Sweden 2023, read-out: Minimum inhibitory concentration): 8 µg/mL (≈ 24.1 µM) | MIC (comparator antibiotics, clinical N. gonorrhoeae isolate 47, Sweden 2023, read-out: Minimum inhibitory concentration): 16 µg/mL (≈ 48.1 µM) | MIC (comparator antibiotics, clinical N. gonorrhoeae isolate 48, Sweden 2023, read-out: Minimum inhibitory concentration): 8 µg/mL (≈ 24.1 µM) | MIC (comparator antibiotics, clinical N. gonorrhoeae isolate 49, Sweden 2023, read-out: Minimum inhibitory concentration): 16 µg/mL (≈ 48.1 µM)
